According to patent US10802016B2, “Microdroplet based bioassay platform” (Northeastern University, priority 2015, dated 2020):

System: DC
Assay: LPS induced IL-6 secretion from single dendritic cells in droplets
Type: cell-based, mouse
Conditions: single DC co-encapsulated with LPS; versus droplets with no LPS
Source text: FIG. 16A is a schematic illustration of […] carried out in a microdroplet.
The activation and monitoring of live single cells for secretion and cell surface markers have been measured simultaneously. In particular, droplet based technology can be applied to simultaneously stimulate mouse DC maturation with an immunological adjuvant, lipopolysaccharide (LPS), and to monitor two phenotypic markers of DCs. The maturation phenotype of the live DC was followed by measuring CD86 expression and IL-6 secretion. DC were co-encapsulated with LPS and bioassay reagents (microsphere sensors and antibodies). This method made it possible to distinguish the responses of individual cells to LPS stimulation in the confined volume of droplets. In addition to CD86, LPS induced IL-6 secretion could be monitored from the same encapsulated single DCs (FIG. 16B). The signal was detected in droplets after 10 min in the array.

lipopolysaccharide [LPS] was tested, and the “IL-6 levels in droplets” value was “significantly higher”.
